Reference: patent US20120316105A1, “Polymyxin Derivates Useful As Antibacterial Agents” (priority 2011, published 2012)
Read-outs that look alike come from different tables or passages of the source. Bridge positions count the residues as written; N and C are the ends. Square brackets hold non-standard residues; d marks the D form. Peptide text beside a SMILES is read from it. * marks the point of attachment. X30 = O=C(c1ccc(Cl)c(-c2ccccc2)c1)*; X3 = O=C(c1ccnc(-c2cccc(Cl)c2)c1)*; X32 = N#Cc1cc(C(=O)*)ccc1-c1ccccc1; X35 = N#Cc1ccc(C(=O)*)cc1-c1ccccc1; 2Naphthoyl = O=C(c1ccc2ccccc2c1)*; X31 = O=C(c1ccnc(-c2ccccc2Cl)c1)*; X5 = O=C(c1ccnc(-c2cccc(F)c2)c1)*; X12 = O=C(c1cccc(-c2ccccc2F)c1)*; X7 = O=C(c1ccnc(-c2ccccc2F)c1)*; Dab = NCC[C@H](N)C(=O)O; Dap = NC[C@H](N)C(=O)O

Tests used:
[1] = tested on: PA-1646, polymyxin-resistant clinical isolate of Pseudomonas aeruginosa; assay type: cell-based; conditions: PA-1646, polymyxin-resistant clinical isolate of
Method: (§1) Minimum bactericidal concentration (MBC, mg/L), minimum inhibitory concentration (MIC, mg/L), and human renal proximal tubule epithelial cell line cytotoxicity concentration 50% (hRPTEC, TC50, micromolar) for compounds of Formula I are listed in Table 2. The compounds of Formula I were tested as the corresponding trifluoroacetate salt except for Example 1 which was tested as the sulfate salt. For Table 2 below: PMB=polymyxin B as the sulfate salt (Bedford Laboratories, pharmaceutical grade); PMB1=polymyxin B1 as the trifluoroacetate salt; Nona=polymyxin B nonapeptide as the trifluoroacetate salt. PMB1 and Nona were prepared using the solid phase methodology described in the experimental section herein.
(§2) The in vitro antibacterial activity of compounds of Formula I was evaluated by MIC testing according to Clinical and Laboratory Standards Institute (CLSI). See: Clinical and Laboratory Standards Institute. Methods for Dilution Antimicrobial Susceptibility Tests for Bacteria that Grow Aerobically; Approved Standard-Eighth Edition. CLSI document M7-A8 [ISBN 1-56238-689-1]. Clinical and Laboratory Standards Institute, 940 West Valley Road, Suite 1400, Wayne, Pa. 19087-1898 USA, 2006; also Clinical and Laboratory Standards Institute. Performance Standards for Antimicrobial Susceptibility Testing; Twentieth Informational Supplement. CLSI document M100-S20 [ISBN 1-56238-716-2]. Clinical and Laboratory Standards Institute. Methods for Determining Bactericidal Activity of Antimicrobial Agents; Approved Guideline. CLSI document M26-A (ISBN 1-56238-384-1). CLSI, 940 West Valley Road, Suite 1400, Wayne, Pa. 19087-1898 USA, 1999.
PA-1646 is a polymyxin-resistant clinical isolate of Pseudomonas aeruginosa obtained from JMI labs (www.jmilabs.com);

[2] = tested on: AB-1649, polymyxin-resistant clinical isolate of Acinetobacter baumannii; assay type: cell-based; conditions: AB-1649, polymyxin-resistant clinical isolate of
Method: as §1, §2
AB-1649 is a polymyxin-resistant clinical isolate of Acinetobacter baumannii obtained from JMI labs (www.jmilabs.com);

[3] = Cytotoxicity assay (LDH release), hRPTEC; assay type: cell-based, human; conditions: human
Method: as §1
Human Renal Proximal Tubule Epithelial cells (hRPTEC) were obtained from Lonza (Walkersville, Md., USA) and cultured in REGM (Renal Epithelial Cell Basal Medium supplemented with human epithelial growth factor, hydrocortisone, epinephrine, insulin, triiodothyronine, transferrin, gentamycin/amphotericin-B, and fetal bovine serum). The hRPTEC cells were seeded into 96-well plates and incubated at 37° C. in 5% CO2. Following a growth period of 72 hours, cells were treated with compounds at 100, 67, 44, 30, 20 and 13 micromolar for 24 hours at 37° C. in 5% CO2. The cell supernatant was then harvested for determination of LDH (lactate dehydrogenase) production. The Cytotoxicity Detection Kit from Roche was used for the measurement of LDH activity released from damaged cells. The Toxic Concentration 50% (TC50, micromolar) values were determined for each compound and compared to the control compounds (polymyxin B was used as a positive control and polymyxin B nonapepetide was used as negative control).

[4] = tested on: EC-1, mouse virulent strain of Escherichia coli; assay type: cell-based; conditions: E. coli EC-1; overnight incubation, lower of duplicate values; trifluoroacetate salt (Example 1 and PMB sulfate)
Method: as §1, §2
(§3) The MIC determination is a standard laboratory method for evaluating the antibacterial activity of a compound. The MIC represents the lowest drug concentration that inhibits visible growth of bacteria following overnight incubation. […] Typically, the drug concentration range is broken down into 2-fold increments (e.g. 0.06 mg/L, 0.12 mg/L, 0.25 mg/L, 0.50 mg/L, 1.0 mg/L, etc.) and the various drug concentrations are all individually incubated overnight with approximately the same number of bacteria. The MIC is then determined by visually inspecting the drug effect at each concentration, and identifying the lowest drug concentration that has inhibited bacterial growth as compared to the drug free control. Typically, bacteria continue to grow at drug concentrations lower than the MIC and don't grow at concentrations at and above the MIC.
(§4) The MIC values described in Table 2 below were derived from assays wherein each test compound was evaluated in duplicate. In cases where the duplicate values varied by 0-2-fold, the lower of the two values was reported below. Generally speaking, if the duplicate values varied by more than 2-fold, the assay was considered non-valid and was repeated until the variation between duplicate runs was ≦2-fold. In line with the CLSI guidelines referred to above, both control organisms and reference compounds were utilized in each MIC assay to provide proper quality control. MIC values generated with these control organisms and reference compounds were required to fall within a defined range for the assay to be considered valid and be included herein. Those skilled in the art will recognize that MIC values can and do vary from experiment to experiment. Generally speaking, it should be recognized that MIC values often vary +/−2-fold from experiment to experiment. While a single MIC is reported for each compound and each microorganism, the reader should not conclude that each compound was only tested once. Several of the compounds were subjected to multiple tests. The data reported in Table 2 is reflective of the compounds relative activity and different MICs may have been generated on these occasions in line with the guidelines described above.
The following bacterial strains were used in these MIC determinations:
EC-1 is a mouse virulent strain of Escherichia coli.

[5] = tested on: AB-3167, clinical isolate of Acinetobacter baumannii; assay type: cell-based
Method: as §1, §2, §3, §4
(§5) The following bacterial strains were used in these MIC determinations: […]

[6] = tested on: PA-1646, polymyxin-resistant clinical isolate of Pseudomonas aeruginosa; assay type: cell-based; conditions: PA-1646, polymyxin-resistant clinical isolate of; remark: listed apart in the source
Method: as §1, §2, §3, §4, §5

[7] = tested on: AB-1649, polymyxin-resistant clinical isolate of Acinetobacter baumannii; assay type: cell-based; conditions: AB-1649, polymyxin-resistant clinical isolate of; remark: listed apart in the source
Method: as §1, §2, §3, §4, §5

[8] = tested on: Pseudomonas aeruginosa strain PA01; assay type: cell-based; conditions: strain
Method: as §1, §2, §3, §4, §5

| SMILES | PA-1646 MBC [1] [µg/mL] | AB-1649 MBC [2] [µg/mL] | CC50 at 24 h [3] [µM] | EC-1 MIC [4] [µg/mL] | AB-3167 MIC ([5]; AB-3167, clinical isolate of) [µg/mL] | PA-1646 MIC [6] [µg/mL] | AB-1649 MIC [7] [µg/mL] | PA01 MIC [8] [µg/mL] | AB-3167 MIC ([5]; A. baumannii AB-3167, overnight incubation, lower of duplicate values, trifluoroacetate salt (Example 1 and PMB sulfate)) [µg/mL] |
| --- | --- | --- | --- | --- | --- | --- | --- | --- | --- |
| CC(C)C[C@@H]1NC(=O)[C@@H](Cc2ccccc2)NC(=O)[C@H](CCN)NC(=O)[C@@H](NC(=O)[C@H](CN)NC(=O)[C@@H](NC(=O)[C@H](CCN)NC(=O)c2ccc(C#N)c(-c3ccccc3)c2)[C@@H](C)O)CCNC(=O)[C@H]([C@@H](C)O)NC(=O)[C@H](CCN)NC(=O)[C@H](CCN)NC1=O [Example 2] (X35-[Dab]T[Dap][Dab][Dab][dF]L[Dab][Dab]T; lactam 4-C) | 4 | 0.5 | 39 | 0.125 | 0.25 | 2 | 0.5 | 0.25 |  |
| CC(C)C[C@@H]1NC(=O)[C@@H](Cc2ccccc2)NC(=O)[C@H](CCN)NC(=O)[C@@H](NC(=O)[C@H](CN)NC(=O)[C@@H](NC(=O)[C@H](CCN)NC(=O)c2ccnc(-c3cccc(Cl)c3)c2)[C@@H](C)O)CCNC(=O)[C@H]([C@@H](C)O)NC(=O)[C@H](CCN)NC(=O)[C@H](CCN)NC1=O [Example 3] (X3-[Dab]T[Dap][Dab][Dab][dF]L[Dab][Dab]T; lactam 4-C) | 1 | 0.5 | 34 | 0.125 | 0.25 | 1 | 0.5 | 0.5 |  |
| CC(C)C[C@@H]1NC(=O)[C@@H](Cc2ccccc2)NC(=O)[C@H](CCN)NC(=O)[C@@H](NC(=O)[C@H](CN)NC(=O)[C@@H](NC(=O)[C@H](CCN)NC(=O)c2ccnc(-c3ccccc3Cl)c2)[C@@H](C)O)CCNC(=O)[C@H]([C@@H](C)O)NC(=O)[C@H](CCN)NC(=O)[C@H](CCN)NC1=O [Example 4] (X31-[Dab]T[Dap][Dab][Dab][dF]L[Dab][Dab]T; lactam 4-C) | 16 | 1 | 86 | 0.125 | 0.25 | 4 | 1 | 0.5 |  |
| CC(C)C[C@@H]1NC(=O)[C@@H](Cc2ccccc2)NC(=O)[C@H](CCN)NC(=O)[C@@H](NC(=O)[C@H](CN)NC(=O)[C@@H](NC(=O)[C@H](CCN)NC(=O)c2ccnc(-c3ccccc3F)c2)[C@@H](C)O)CCNC(=O)[C@H]([C@@H](C)O)NC(=O)[C@H](CCN)NC(=O)[C@H](CCN)NC1=O [Example 5] (X7-[Dab]T[Dap][Dab][Dab][dF]L[Dab][Dab]T; lactam 4-C) | 4 | 1 | 83 | 0.125 |  | 2 | 1 | 0.5 | 0.125 |
| CC(C)C[C@@H]1NC(=O)[C@@H](Cc2ccccc2)NC(=O)[C@H](CCN)NC(=O)[C@@H](NC(=O)[C@H](CN)NC(=O)[C@@H](NC(=O)[C@H](CCN)NC(=O)c2ccc3ccccc3c2)[C@@H](C)O)CCNC(=O)[C@H]([C@@H](C)O)NC(=O)[C@H](CCN)NC(=O)[C@H](CCN)NC1=O [Example 6] (2Naphthoyl-[Dab]T[Dap][Dab][Dab][dF]L[Dab][Dab]T; lactam 4-C) | 16 | 2 | 51 | 0.125 | 0.25 | 4 | 2 | 0.5 |  |
| CC(C)C[C@@H]1NC(=O)[C@@H](Cc2ccccc2)NC(=O)[C@H](CCN)NC(=O)[C@@H](NC(=O)[C@H](CN)NC(=O)[C@@H](NC(=O)[C@H](CCN)NC(=O)c2ccnc(-c3cccc(F)c3)c2)[C@@H](C)O)CCNC(=O)[C@H]([C@@H](C)O)NC(=O)[C@H](CCN)NC(=O)[C@H](CCN)NC1=O [Example 7] (X5-[Dab]T[Dap][Dab][Dab][dF]L[Dab][Dab]T; lactam 4-C) | 8 | 1 | 41 | 0.125 | 0.25 | 2 | 1 | 0.5 |  |
| CC(C)C[C@@H]1NC(=O)[C@@H](Cc2ccccc2)NC(=O)[C@H](CCN)NC(=O)[C@@H](NC(=O)[C@H](CN)NC(=O)[C@@H](NC(=O)[C@H](CCN)NC(=O)c2ccc(-c3ccccc3)c(C#N)c2)[C@@H](C)O)CCNC(=O)[C@H]([C@@H](C)O)NC(=O)[C@H](CCN)NC(=O)[C@H](CCN)NC1=O [Example 8] (X32-[Dab]T[Dap][Dab][Dab][dF]L[Dab][Dab]T; lactam 4-C) | 4 | 1 | 32 | 0.5 | 0.25 | 2 | 1 | 1 |  |
| CC(C)C[C@@H]1NC(=O)[C@@H](Cc2ccccc2)NC(=O)[C@H](CCN)NC(=O)[C@@H](NC(=O)[C@H](CN)NC(=O)[C@@H](NC(=O)[C@H](CCN)NC(=O)c2cccc(-c3ccccc3F)c2)[C@@H](C)O)CCNC(=O)[C@H]([C@@H](C)O)NC(=O)[C@H](CCN)NC(=O)[C@H](CCN)NC1=O [Example 9] (X12-[Dab]T[Dap][Dab][Dab][dF]L[Dab][Dab]T; lactam 4-C) | 2 | 2 | 24 | 0.25 | 0.25 | 2 | 1 | 0.5 |  |
| CC(C)C[C@@H]1NC(=O)[C@@H](Cc2ccccc2)NC(=O)[C@H](CCN)NC(=O)[C@@H](NC(=O)[C@H](CN)NC(=O)[C@@H](NC(=O)[C@H](CCN)NC(=O)c2ccc(Cl)c(-c3ccccc3)c2)[C@@H](C)O)CCNC(=O)[C@H]([C@@H](C)O)NC(=O)[C@H](CCN)NC(=O)[C@H](CCN)NC1=O [Example 10] (X30-[Dab]T[Dap][Dab][Dab][dF]L[Dab][Dab]T; lactam 4-C) | 1 | 1 | 14 | 0.25 | 0.5 | 0.5 | 1 | 1 |  |
